Assays:
[1] = tested on: LLC tumors; assay: Gemcitabine treatment of WT and Itgam-/- mice with LLC tumors; assay type: in vivo
Experimental: Tumor Studies—Subcutaneous tumor studies: 5×10^5 LLC or B16 cells were injected subcutaneously into syngeneic (C57BL/6) 6- to 8-week old WT or Itgam^−/− mice (n=18). Tumors were excised at 7, 14 or 21 days, cryopreserved in OCT, lysed for RNA purification or collagenase-digested for flow cytometric analysis of CD11b+, F4/80+ and Gr1+ expression. Tumor volumes were calculated using the equation (l^2×w)/2. CL66-luc cells (0.5×10^6 cells) were suspended in 50 μL of basement membrane extract Matrigel (BD Pharmingen) in PBS (1:1) and inoculated orthotopically in the fourth mammary fat pad of female Balb/cJ mice. Tumor dimensions were measured every 2 days, and tumor volume was calculated using the equation: V (mm^3)=[…], where length is the longest diameter of the tumor and width is the shorter diameter.

[2] = tested on: LLC tumors; assay: Imatinib treatment of WT and Itgam-/- mice bearing LLC tumors; assay type: in vivo
[3] = target: T1, Stat3 (Mus musculus, UniProt P42227); assay: mRNA expression in macrophages incubated with Stat3 inhibitor; assay type: cell-based, murine
T1 construct: endogenous in cells; host or cells: murine bone marrow derived macrophages (WT and Itgam-/-)
T1 sequence (P42227 whole entry): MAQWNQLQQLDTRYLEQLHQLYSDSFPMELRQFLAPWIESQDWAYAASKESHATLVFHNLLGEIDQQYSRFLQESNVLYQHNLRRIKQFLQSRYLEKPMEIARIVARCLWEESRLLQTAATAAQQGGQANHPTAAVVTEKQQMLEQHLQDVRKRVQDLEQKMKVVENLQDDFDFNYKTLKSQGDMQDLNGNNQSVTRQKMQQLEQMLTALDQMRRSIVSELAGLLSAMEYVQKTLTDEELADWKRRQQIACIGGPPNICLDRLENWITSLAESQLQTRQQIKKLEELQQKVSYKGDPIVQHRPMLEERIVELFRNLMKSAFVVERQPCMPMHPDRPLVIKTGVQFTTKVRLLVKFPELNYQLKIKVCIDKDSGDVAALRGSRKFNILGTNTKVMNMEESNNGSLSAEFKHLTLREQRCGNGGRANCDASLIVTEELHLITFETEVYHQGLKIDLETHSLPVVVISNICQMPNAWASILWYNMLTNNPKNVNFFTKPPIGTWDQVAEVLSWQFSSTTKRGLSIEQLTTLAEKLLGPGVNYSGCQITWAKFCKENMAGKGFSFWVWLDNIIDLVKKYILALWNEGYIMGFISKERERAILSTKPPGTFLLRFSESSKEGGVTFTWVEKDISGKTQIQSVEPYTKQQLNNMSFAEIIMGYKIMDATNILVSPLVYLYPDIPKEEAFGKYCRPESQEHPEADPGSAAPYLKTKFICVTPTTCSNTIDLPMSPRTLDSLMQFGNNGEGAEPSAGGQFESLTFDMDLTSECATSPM
Experimental: Macrophage Polarization—Bone marrow derived macrophages were polarized with either IFNγ (20 ng/ml, Peprotech) plus LPS (100 ng/ml, Sigma) or LPS alone for 24 h or IL-4 (20 ng/ml, Peprotech) for 24-48 h. In some cases, macrophages were incubated with inhibitors of Stat3 ([…]) or cMyc (10058-F4, Selleck). In other experiments, BMM were treated with LLC tumor conditioned media (TCM) or 100 ng/ml TGF-β (PeproTech) for 6 h to analyze changes in protein and gene expression levels. TCM was obtained by culturing LLC in serum free media for 18 h followed by collecting the supernatant and sterile filtering prior to use. In some experiments TGF-β signaling was inhibited using SB5253324 added 30 min prior and during the 6 h stimulation. Total RNA was harvested from macrophages using the RNeasy Mini Kit (Qiagen) according to the manufacturer's instructions. Secreted protein was measured in culture supernatants by ELISA assays.
Analysis of Gene Expression—Total RNA was isolated from cells using RNeasy Mini Kit (Qiagen). cDNA was prepared using 1 μg RNA with the qScript cDNA Synthesis Kit (Quanta Biosciences) or the SuperScript III First-Strand Synthesis Kit (Invitrogen). […]

## Nc1ccn([C@@H]2O[C@H](CO)[C@@H](O)C2(F)F)c(=O)n1 [gemcitabine]
[1]
  tumor growth in Itgam-/- mice versus WT mice: suppressed tumor growth more profoundly than gemcitabine treatment of WT mice

## Cc1ccc(NC(=O)c2ccc(CN3CCN(C)CC3)cc2)cc1Nc1nccc(-c2cccnc2)n1 [Imatinib, imatinib]
[2]
  tumor growth and vascular normalization in Itgam-/- mice: suppressed the enhanced tumor growth and increased vascular normalization observed in Itgam−/− mice

## C1=Cc2nc1cc1ccc([nH]1)c(-c1ccccc1)c1nc(cc3ccc([nH]3)c2-c2ccccc2)C=C1 [5,15-DPP]
[3]
  Il6 expression in Itgam-/- macrophages: did not affect the high levels of Il6 expression
  immune suppressive factor expression in Itgam-/- macrophages: reduced to WT macrophage levels

— patent US11679100B2, “Methods of enhancing immunity” (The Regents of the University of California, priority 2018, dated 2023)
